From patent EP4238971A1, “SUBSTITUTED ISOXAZOLINE DERIVATIVES” (BASF SE, priority 2022, dated 2023)
Like-named read-outs stand apart in the source and are kept apart here.

Assays:
Type in all cases: in vivo
Dichromothrips corbetti = experiment: Orchid thrips (Dichromothrips corbetti), floral-immersion technique; conditions: for mortality at 300 ppm: Dichromothrips corbetti, read-out: mortality in comparison with untreated controls
Method: B.6. Orchid thrips (Dichromothrips corbetti)
Dichromothrips corbetti adults used for bioassay were obtained from a colony maintained continuously under laboratory conditions. For testing purposes, the test compound was diluted in a 1:1 mixture of acetone:water (vol:vol), plus Kinetic at a rate of 0.01% v/v.
Thrips potency of each compound was evaluated by using a floral-immersion technique. Each orchid petal was dipped into treatment solution and allowed to dry in Petri dishes. Treated petals were placed into individual re-sealable plastic along with about 20 adult thrips. All test arenas were held under dark condition and a temperature of about 28°C for duration of the assay. The percent mortality was recorded 72 hours after treatment.

Plutella xylostella = experiment: Diamond back moth (Plutella xylostella), cabbage leaf disc dip test; conditions: for mortality at 300 ppm: Plutella xylostella, foliar, read-out: mortality in comparison with untreated controls
Method: B.5. Diamond back moth (Plutella xylostella)
The active compound was dissolved at the desired concentration in a mixture of 1:1 (vol:vol) distilled water: acetone. Surfactant (Kinetic) was added at a rate of 0.01% (vol/vol). The test solution was prepared at the day of use. Cabbage leaf discs (60mm in diameter) were dipped in test solution and air-dried. Treated leaves were placed in petri dishes lined with moistened filter paper and inoculated with ten 3rd instar larvae. Mortality was recorded 72 hours after treatment. Feeding damages were also recorded using a scale of 0-100%.

Anthonomus grandis = experiment: Boll weevil (Anthonomus grandis) control, insect diet in 96-well microtiter plates; conditions: for mortality in comparison with untreated controls: 2500ppm; for mortality at 2500 ppm: Anthonomus grandis, 120 h, read-out: mortality in comparison with untreated controls
Method: (§1) If not otherwise specified, the test solutions were prepared as follows: The active compound was dissolved at the desired concentration in a mixture of 1:1 (vol:vol) distilled water:acetone. The test solution was prepared at the day of use.
(§2) Test solutions were prepared in general at a concentration of 2500ppm (wt/vol).
B.1. Boll weevil (Anthonomus grandis)
For evaluating control of boll weevil, the test unit consisted of 96-well-microtiter plates containing an insect diet and 5-10 A. grandis eggs.
The compounds were formulated using a solution containing 75% v/v water and 25% v/v DMSO. Different concentrations of formulated compounds were sprayed onto the insect diet at 5µl, using a custom-built micro atomizer, at two replications.
After application, microtiter plates were incubated at about 25 ± 1°C and about 75 ± 5 % relative humidity for 5 days. Egg and larval mortality were then visually assessed.

Aedes aegypti = experiment: whole plant or invertebrate; conditions: larval mortality visually assessed after 2 days; for mortality in comparison with untreated controls: 2500ppm; for mortality at 2500 ppm: Aedes aegypti, 48 h, read-out: mortality in comparison with untreated controls
Method: as §1, §2
B.4. Yellow fever mosquito (Aedes aegypti)
For evaluating control of Yellow Fever Mosquito, the test unit consisted of 96-well-microtiter plates containing 200µl of tap water per well and 5-15 freshly hatched A. aegypti larvae. The active compounds were formulated using a solution containing 75% (v/v) water and 25% (v/v) DMSO. Different concentrations of formulated compounds or mixtures were sprayed onto the insect diet at 2.5µl, using a custom-built micro atomizer, at two replications.
After application, microtiter plates were incubated at 28 ± 1°C, 80 ± 5 % RH for 2 days. Larval mortality was then visually assessed.

Spodoptera eridania = experiment: Southern armyworm (Spodoptera eridania), 2nd instar larvae, sprayed lima bean plants; conditions: for mortality in comparison with untreated controls: 300ppm, 2nd instar larvae, assessed 4 days after treatment; for mortality at 300 ppm: Spodoptera eridania, 96 h, read-out: mortality in comparison with untreated controls
Method: B.7. Southern armyworm (Spodoptera eridania), 2nd instar larvae
The active compounds were formulated by a Tecan liquid handler in 100% cyclohexanone as a 10'000 ppm solution supplied in tubes. The 10'000 ppm solution was serially diluted in 100% cyclohexanone to make interim solutions. These served as stock solutions for which final dilutions were made by the Tecan in 50% acetone:50% water (v/v) into 10 or 20ml glass vials. A nonionic surfactant (Kinetic®) was included in the solution at a volume of 0.01% (v/v). The vials were then inserted into an automated electrostatic sprayer equipped with an atomizing nozzle for application to plants/insects. Lima bean plants (variety Sieva) were grown 2 plants to a pot and selected for treatment at the 1st true leaf stage. Test solutions were sprayed onto the foliage by an automated electrostatic plant sprayer equipped with an atomizing spray nozzle. The plants were dried in the sprayer fume hood and then removed from the sprayer. Each pot was placed into perforated plastic bags with a zip closure. Ten to 11 armyworm larvae were placed into the bag and the bags zipped closed. Test plants were maintained in a growth room at about 25°C and about 20-40% relative humidity for 4 days, avoiding direct exposure to fluorescent light (14:10 light:dark photo-period) to prevent trapping of heat inside the bags. Mortality and reduced feeding were assessed 4 days after treatment, compared to untreated control plants.

Heliothis virescens = experiment: Tobacco budworm (Heliothis virescens) control, insect diet in 96-well microtiter plates; conditions: for mortality at 2500 ppm: Heliothis virescens, 120 h, read-out: mortality in comparison with untreated controls
Method: as §1, §2
B.3. Tobacco budworm (Heliothis virescens)
For evaluating control of Tobacco Budworm, the test unit consisted of 96-well-microtiter plates containing an insect diet and 15-25 H. virescens eggs. The compounds were formulated using a solution containing 75% v/v water and 25% v/v DMSO. Different concentrations of formulated compounds were sprayed onto the insect diet at 10µl, using a custom-built micro atomizer, at two replications. After application, microtiter plates were incubated at about 28 ± 1°C and about 80 ± 5 % relative humidity for 5 days. Egg and larval mortality was then visually assessed.

Myzus persicae = experiment: Green peach aphid (Myzus persicae), mixed life stages, systemic test via artificial diet under membrane; conditions: for mortality at 2500 ppm: Myzus persicae, 72 h, read-out: mortality in comparison with untreated controls
Method: as §1, §2
B.2. Green peach aphid (Myzus persicae) (mixed life stages)
For evaluating control of Green Peach Aphid through systemic means the test unit consisted of 96-well-microtiter plates containing liquid artificial diet under an artificial membrane. The compounds were formulated using a solution containing 75% v/v water and 25% v/v DMSO. Different concentrations of formulated compounds were pipetted into the aphid diet, using a custom-built pipette, at two replications. After application, 5 - 8 adult aphids were placed on the artificial membrane inside the microtiter plate wells. The aphids were then allowed to suck on the treated aphid diet and incubated at about 23 ± 1°C and about 50 ± 5 % relative humidity for 3 days. Aphid mortality and fecundity was then visually assessed.

[1] = 300ppm, adult thrips, mortality recorded 72 hours after treatment
[2] = 300ppm, 3rd instar larvae, mortality recorded 72 hours after treatment
[3] = egg and larval mortality visually assessed after 5 days
[4] = 2500ppm, egg and larval mortality visually assessed after 5 days
[5] = 2500ppm, aphid mortality visually assessed after 3 days

| Molecule | mortality in comparison with untreated controls (Dichromothrips corbetti; [1]) | mortality in comparison with untreated controls (Plutella xylostella; [2]) | mortality in comparison with untreated controls (Anthonomus grandis; [3]) | mortality in comparison with untreated controls (Aedes aegypti) | mortality in comparison with untreated controls (Spodoptera eridania) | mortality in comparison with untreated controls (Heliothis virescens; [4]) | mortality in comparison with untreated controls (Myzus persicae; [5]) | mortality at 300 ppm (Dichromothrips corbetti; 72 h) | mortality at 300 ppm (Plutella xylostella; 72 h) | mortality at 2500 ppm (Anthonomus grandis) | mortality at 2500 ppm (Aedes aegypti) | mortality at 2500 ppm (Heliothis virescens) | other results |
| --- | --- | --- | --- | --- | --- | --- | --- | --- | --- | --- | --- | --- | --- |
| C#CCN(C1=NOC(c2ccc(F)c(Cl)c2)(C(F)(F)F)C1)c1ccc(C#N)c(-n2cncn2)c1 (stereo not shown) [I-12] | at least 75% | at least 75% | at least 75% | at least 75% | at least 75% | at least 75% | at least 75% | – | – | – | – | – | – |
| N-[4-chloro-3-[4-(trifluoromethyl)pyrazol-1-yl]phenyl]-5-(3,5-dichloro-4-fluoro-phenyl)-N-(methoxymethyl)-5-(trifluoromethyl)-4H-isoxazol-3-amine [I-23] | at least 75% | at least 75% | – | – | at least 75% | – | – | – | – | – | – | – | – |
| N#Cc1ccc(N(CC2CC2)C2=NOC(c3ccc(F)c(Cl)c3)(C(F)(F)F)C2)cc1-n1cncn1 (stereo not shown) [I-11] | at least 75% | at least 75% | at least 75% | at least 75% | at least 75% | at least 75% | at least 75% | – | – | – | – | – | – |
| CCOC(=O)N(C1=NOC(c2cc(Cl)c(F)c(Cl)c2)(C(F)(F)F)C1)c1ccc(Cl)c(-n2cnc(C(F)(F)F)c2)c1 (stereo not shown) [I-26, ethyl N-[4-chloro-3-[4-(trifluoromethyl)imidazol-1-yl]phenyl]-N-[5-(3,5-dichloro-4-fluoro-phenyl)-5-(trifluoromethyl)-4H-isoxazol-3-yl]carbamate] | – | – | – | – | – | – | – | ≥ 75% | ≥ 75% | ≥ 75% | ≥ 75% | ≥ 75% | mortality at 300 ppm (Spodoptera eridania): ≥ 75% |
| CN(C1=NOC(c2ccc(F)c(Cl)c2)(C(F)(F)F)C1)c1ccc(C#N)c(-n2cncn2)c1 (stereo not shown) [I-9] | at least 75% | at least 75% | at least 75% | at least 75% | at least 75% | at least 75% | at least 75% | – | – | – | – | – | – |
| O=C(NCC(F)(F)F)c1cnn(-c2cc(NC3=NOC(c4cc(Cl)c(F)c(Cl)c4)(C(F)(F)F)C3)ccc2Cl)c1 (stereo not shown) [I-18, 1-[2-chloro-5-[[5-(3,5-dichloro-4-fluoro-phenyl)-5-(trifluoromethyl)-4H-isoxazol-3-yl]amino]phenyl]-N-(2,2,2-trifluoroethyl)pyrazole-4-carboxamide] | – | – | – | – | – | – | – | – | – | – | – | – | mortality at 300 ppm (Dichromothrips corbetti; [1]): ≥ 75%; mortality at 300 ppm (Plutella xylostella; [2]): ≥ 75%; mortality at 2500 ppm (Anthonomus grandis; 2500 ppm, egg and larval mortality visually assessed after 5 days): ≥ 75%; mortality at 2500 ppm (Heliothis virescens; [4]): ≥ 75%; mortality at 2500 ppm (Myzus persicae; [5]): ≥ 75% |
| CCN(C1=NOC(c2cc(Cl)c(F)c(Cl)c2)(C(F)(F)F)C1)c1ccc(C#N)c(-n2cncn2)c1 (stereo not shown) [I-20, 4-[[5-(3,5-dichloro-4-fluoro-phenyl)-5-(trifluoromethyl)-4H-isoxazol-3-yl]-ethyl-amino]-2-(1,2,4-triazol-1-yl)benzonitrile] | – | – | – | – | – | – | – | ≥ 75% | ≥ 75% | ≥ 75% | ≥ 75% | ≥ 75% | mortality at 300 ppm (Spodoptera eridania): ≥ 75% |
| Fc1c(Cl)cc(C2(C(F)(F)F)CC(Nc3ccc(Cl)c(-n4cnc(C(F)(F)F)c4)c3)=NO2)cc1Cl (stereo not shown) [I-16, N-[4-chloro-3-[4-(trifluoromethyl)imidazol-1-yl]phenyl]-5-(3,5-dichloro-4-fluoro-phenyl)-5-(trifluoromethyl)-4H-isoxazol-3-amine] | – | – | – | – | – | – | – | ≥ 75% | ≥ 75% | ≥ 75% | ≥ 75% | ≥ 75% | mortality at 2500 ppm (Myzus persicae): ≥ 75% |
| COCN(C1=NOC(c2cc(Cl)c(F)c(Cl)c2)(C(F)(F)F)C1)c1ccc(C#N)c(-n2cncn2)c1 (stereo not shown) [I-22] | at least 75% | at least 75% | – | – | – | – | – | – | – | – | – | – | – |
